This is an account of results in ChEMBL document CHEMBL5143568, “Identification of novel xanthine oxidase inhibitors via virtual screening with enhanced characterization of molybdopterin binding groups” (Eur J Med Chem, 2022).

The structures appear in SMILES notation. A value given as a limit tells only on which side of the number the result lay.

For orientation: IC50 means the concentration that gives 50% inhibition. Read a high IC50 as lower potency. Usually inhibition stands for the change of the read-out against control, counted positive when it falls.

The target of the first assay is T1, Xanthine dehydrogenase/oxidase (Homo sapiens, UniProt P47989). Kind of assay: Inhibition of xanthine oxidase (unknown origin) measured by spectrophotometric analysis.
T1 sequence (P47989 whole entry): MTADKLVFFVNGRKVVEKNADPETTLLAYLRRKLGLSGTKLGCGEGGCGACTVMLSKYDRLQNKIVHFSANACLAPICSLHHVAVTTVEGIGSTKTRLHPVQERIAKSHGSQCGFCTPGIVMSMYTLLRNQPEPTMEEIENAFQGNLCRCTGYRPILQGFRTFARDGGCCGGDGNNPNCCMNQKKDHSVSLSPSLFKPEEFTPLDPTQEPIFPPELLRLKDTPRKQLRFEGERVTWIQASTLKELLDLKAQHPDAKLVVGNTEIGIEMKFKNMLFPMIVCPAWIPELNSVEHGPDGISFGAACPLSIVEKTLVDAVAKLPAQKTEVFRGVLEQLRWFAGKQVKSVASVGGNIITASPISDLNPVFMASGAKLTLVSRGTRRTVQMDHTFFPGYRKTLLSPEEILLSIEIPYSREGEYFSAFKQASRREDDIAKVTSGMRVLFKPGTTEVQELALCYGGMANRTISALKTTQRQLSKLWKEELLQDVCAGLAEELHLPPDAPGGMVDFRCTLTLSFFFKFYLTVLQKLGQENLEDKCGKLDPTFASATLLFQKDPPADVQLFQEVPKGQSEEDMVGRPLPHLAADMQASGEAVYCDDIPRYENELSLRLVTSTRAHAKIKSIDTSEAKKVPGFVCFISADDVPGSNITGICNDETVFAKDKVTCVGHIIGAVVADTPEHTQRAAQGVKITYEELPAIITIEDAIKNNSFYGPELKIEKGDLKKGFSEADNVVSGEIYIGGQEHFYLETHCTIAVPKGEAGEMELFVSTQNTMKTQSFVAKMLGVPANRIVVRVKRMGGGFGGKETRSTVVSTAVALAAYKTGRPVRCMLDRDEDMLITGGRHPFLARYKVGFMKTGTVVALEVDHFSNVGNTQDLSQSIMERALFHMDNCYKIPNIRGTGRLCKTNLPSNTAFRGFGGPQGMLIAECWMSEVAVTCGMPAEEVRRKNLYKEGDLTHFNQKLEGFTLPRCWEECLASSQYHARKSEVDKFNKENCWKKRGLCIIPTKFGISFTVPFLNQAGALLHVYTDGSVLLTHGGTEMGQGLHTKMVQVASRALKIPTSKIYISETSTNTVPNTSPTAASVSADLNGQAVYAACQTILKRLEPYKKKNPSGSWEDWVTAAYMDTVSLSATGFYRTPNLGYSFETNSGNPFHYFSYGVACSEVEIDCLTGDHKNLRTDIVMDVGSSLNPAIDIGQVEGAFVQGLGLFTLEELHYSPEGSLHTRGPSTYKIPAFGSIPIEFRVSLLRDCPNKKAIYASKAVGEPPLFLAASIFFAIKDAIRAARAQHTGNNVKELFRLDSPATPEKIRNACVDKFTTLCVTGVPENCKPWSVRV
`Cc1nc(-c2ccc(OCC(C)C)c(C#N)c2)sc1C(=O)O` [FEBUXOSTAT] yielded an IC50 of 2.92 nM. That is a single-digit nanomolar value.

Turning to `NC1=NC(=O)/C(=C/c2cccc(F)c2)S1`, it took 1020 nM to reach half-maximal inhibition (IC50). Compared with the last molecule, the IC50 is about 350-fold higher.

A further assay addresses T1, Xanthine dehydrogenase/oxidase. Kind of assay: Inhibition of xanthine oxidase (unknown origin) at 10 uM measured by spectrophotometric analysis relative to control.
For `N=C1SCC(=O)N1c1ncc(OCc2ccc(Cl)cc2Cl)s1`, the inhibition at 10 µM was less than 40%.

Take `Cc1ccc(C(=O)Oc2ccc(Br)cc2/C=C2\SC(N)=NC2=O)cc1`: the inhibition at 10 µM is less than 40%.

Consider `COc1ccc(/C=C2\SC(=S)NC2=O)cc1OC`, for which the inhibition at 10 µM worked out at 44.4%.

Consider `O=C1N=C(S)S/C1=C/c1cc(Cl)ccc1O`, for which the inhibition at 10 µM is less than 40%.

Take `Cc1ccc(C(=O)Oc2cccc(/C=C3\SC(N)=NC3=O)c2)cc1`: the inhibition at 10 µM is less than 40%.

As to `Cc1ccc(Cl)c2c1NC(=O)/C2=C1/SC(N)=NC1=O`, the inhibition at 10 µM was less than 40%.

For the molecule `COc1ccc(/C=C2/SC(N)=NC2=O)cc1`, the inhibition at 10 µM is less than 40%.

With `COc1cc(/C=C2/SC(S)=NC2=O)ccc1Cc1ccccc1Cl`, the inhibition at 10 µM is less than 40%.

For `NC1=NC(=O)/C(=C/c2cc(Br)cc(Br)c2OCc2ccc(Cl)cc2Cl)S1`, the inhibition at 10 µM is less than 40%.

On to `NC1=NC(=O)/C(=C/c2cccc(F)c2)S1`, for which the inhibition at 10 µM was 91.5%.

The next assay has the same target. Put plainly: Inhibition of xanthine oxidase (unknown origin) at 0.1 uM measured by spectrophotometric analysis relative to control.
Regarding `Cc1nc(-c2ccc(OCC(C)C)c(C#N)c2)sc1C(=O)O` [FEBUXOSTAT], the inhibition at 0.1 µM amounted to 102%.
